Values of other authors as cited in paper PMC7395068, “The evolution of strategies to minimise the risk of human drug-induced liver injury (DILI) in drug discovery and development” (Archives of Toxicology, 2020).
Read-outs that look alike come from different tables or passages of the source.

Key:
[1] = cited from earlier work
[2] = system: isolated mouse liver mitochondria; conditions: cited from earlier work
[3] = ref Chen 2016; cited from earlier work
[4] = In vitro Assay, ref Porceddu 2012

Row | SMILES | In vivo DILI ([1]; in vivo) | in vitro data EC2<=1x Cmax [2, 4] | in vitro data EC20<=2uM [2, 4] | In vivo DILI ([1]; ref Porceddu 2012) | DILI +VE (5-8), DILI -VE (-4) [3] | DILI severity category [3] | in vitro data EC20<=2uM [2] | in vitro data EC20<=2uM ([2]; isolated mouse liver mitochondria, EC20<=2uM, ref Porceddu 2012)
1 | Cc1cc(=O)n(-c2ccccc2)n1C [Antipyrine] | -VE | +VE | -VE |  |  |  |  | 
2 | COc1cc(CNC(=O)CCCC/C=C/C(C)C)ccc1O [Capsaicin] |  | -VE | +VE | -VE |  |  |  | 
3 | O=P(O)(O)C(Cl)(Cl)P(=O)(O)O [Clodronate] |  | -VE | -VE | -VE |  |  |  | 
4 | Clc1ccc(COC(Cn2ccnc2)c2ccc(Cl)cc2Cl)cc1 (stereo not shown) [Econazole] |  | +VE | +VE | +VE |  |  |  | 
5 | O=C(O)c1ccccc1Nc1cccc(C(F)(F)F)c1 [Flufenamic acid] |  | +VE | +VE | +VE |  |  |  | 
6 | Cc1cc2c(C(C)C)c(O)c(O)c(C=O)c2c(O)c1-c1c(C)cc2c(C(C)C)c(O)c(O)c(C=O)c2c1O [Gossypol] |  |  | +VE | +VE |  |  |  | 
7 | O=C(O)c1nn(Cc2ccc(Cl)cc2Cl)c2ccccc12 [Lonidamine] |  | +VE | +VE | +VE |  |  |  | 
8 | CCOC(=O)[N-]c1cn(N2CCOCC2)n[o+]1 [Molsidomine] |  | -VE | -VE | -VE |  |  |  | 
9 | CO[C@]12C[C@@H](COC(=O)c3cncc(Br)c3)CN(C)[C@@H]1Cc1cn(C)c3cccc2c13 [Nicergoline] |  | -VE | +VE | -VE |  |  |  | 
10 | O=C1NS(=O)(=O)c2ccccc21 [Saccharin] |  | +VE | -VE | +VE |  |  |  | 
11 | Cc1c(Cl)cccc1Nc1ccccc1C(=O)O [Tolfenamic acid] |  | +VE | +VE | +VE |  |  |  | 
12 | C[C@@H]1O[C@@H](OC[C@H]2O[C@@H](Oc3c(-c4ccc(OCCO)c(OCCO)c4)oc4cc(OCCO)cc(O)c4c3=O)[C@H](O)[C@@H](O)[C@@H]2O)[C@H](O)[C@H](O)[C@H]1O [Troxerutin] |  | -VE | +VE | -VE |  |  |  | 
13 | O=[As]O[As]=O (stereo not shown) [arsenic trioxide] |  | -VE | +VE | +VE | -VE | Ambiguous DILI-concern |  | 
14 | C=CC1=C(C(=O)O)N2C(=O)[C@@H](NC(=O)/C(=N\OCC(=O)O)c3csc(N)n3)[C@H]2SC1 [cefixime] |  | +VE | -VE | +VE | -VE | Ambiguous DILI-concern |  | 
15 | O=C(O)CCCc1ccc(N(CCCl)CCCl)cc1 [chlorambucil] |  | +VE | +VE | +VE | +VE | vLess-DILI-Concern |  | 
16 | O=c1c(-c2ccc(O)cc2)coc2cc(O)cc(O)c12 [genistein] | -VE |  |  |  |  |  | +VE | 
17 | [Cl][Mn][Cl] [manganese chloride] |  | -VE | -VE | -VE |  |  |  | 
18 | Cc1cn(-c2cc(NC(=O)c3ccc(C)c(Nc4nccc(-c5cccnc5)n4)c3)cc(C(F)(F)F)c2)cn1 [nilotinib] |  | +VE |  |  |  |  |  | 
19 | Cc1cc2nc3c(=O)[nH]c(=O)nc-3n(C[C@H](O)[C@H](O)[C@H](O)CO)c2cc1C [riboflavin] |  | -VE |  |  |  |  |  | 
20 | CC[C@H]1OC(=O)[C@H](C)[C@@H](O[C@H]2C[C@@](C)(OC)[C@@H](O)[C@H](C)O2)[C@H](C)[C@@H](O[C@@H]2O[C@H](C)C[C@H](N(C)C)[C@H]2O)[C@](C)(O)C[C@@H](C)/C(=N\OCOCCOC)[C@H](C)[C@@H](O)[C@]1(C)O [roxithromycin] |  | +VE | -VE | +VE |  |  |  | 
21 | NCCS(=O)(=O)O [taurine] |  |  |  |  |  |  |  | -VE
